Assay results reported in paper PMC6501426 (Clinical Epigenetics, 2019).

How the values were obtained:
CHK1 (h) = target: T1, CHK1 (h) (Homo sapiens, UniProt O14757); assay: Kinase panel (Cerep); format: biochemical; settings: read-out: % inhibition at 10 µM by MC3353, CHK1 (h), ATP 30 μM
T1 construct: purchased Eurofins Cerep
Experimental: (§1) The test compound, reference compound or water (control) were mixed with the enzyme (for the exact amount see table below) in the appropriate buffer. Thereafter, the reaction was initiated by adding the required amount of the appropriate substrate and of ATP, and the mixture is incubated at room temperature (variable reaction time, see table below). For control basal measurements, the enzyme was omitted from the reaction mixture. Following incubation, the reaction was stopped by adding 13 mM EDTA. After 5 min, the proper antibody labelled with europium chelate was added. After 60 more min, the fluorescence transfer was measured at λex=337 nm, λem=620 nm and λem=665 nm using a microplate reader (Envision, Perkin Elmer). The enzyme activity was determined by dividing the signal measured at 665 nm by that measured at 620 nm (ratio). The results are expressed as a percent inhibition of the control enzyme activity.

KDR kinase (h) (VEGFR2) = target: T2, KDR kinase (h) (VEGFR2) (Homo sapiens, UniProt P35968); assay: Kinase panel (Cerep); format: biochemical; settings: read-out: % inhibition at 10 µM by MC3353, KDR kinase (h) (VEGFR2), ATP 25 μM
T2 construct: purchased Eurofins Cerep
Experimental: as §1

IRK (h) (InsR) = target: T3, IRK (h) (InsR) (Homo sapiens, UniProt P06213); assay: Kinase panel (Cerep); format: biochemical; settings: read-out: % inhibition at 10 µM by MC3353, IRK (h) (InsR), ATP 30 μM
T3 construct: purchased Eurofins Cerep
T3 sequence (P06213 28-1382): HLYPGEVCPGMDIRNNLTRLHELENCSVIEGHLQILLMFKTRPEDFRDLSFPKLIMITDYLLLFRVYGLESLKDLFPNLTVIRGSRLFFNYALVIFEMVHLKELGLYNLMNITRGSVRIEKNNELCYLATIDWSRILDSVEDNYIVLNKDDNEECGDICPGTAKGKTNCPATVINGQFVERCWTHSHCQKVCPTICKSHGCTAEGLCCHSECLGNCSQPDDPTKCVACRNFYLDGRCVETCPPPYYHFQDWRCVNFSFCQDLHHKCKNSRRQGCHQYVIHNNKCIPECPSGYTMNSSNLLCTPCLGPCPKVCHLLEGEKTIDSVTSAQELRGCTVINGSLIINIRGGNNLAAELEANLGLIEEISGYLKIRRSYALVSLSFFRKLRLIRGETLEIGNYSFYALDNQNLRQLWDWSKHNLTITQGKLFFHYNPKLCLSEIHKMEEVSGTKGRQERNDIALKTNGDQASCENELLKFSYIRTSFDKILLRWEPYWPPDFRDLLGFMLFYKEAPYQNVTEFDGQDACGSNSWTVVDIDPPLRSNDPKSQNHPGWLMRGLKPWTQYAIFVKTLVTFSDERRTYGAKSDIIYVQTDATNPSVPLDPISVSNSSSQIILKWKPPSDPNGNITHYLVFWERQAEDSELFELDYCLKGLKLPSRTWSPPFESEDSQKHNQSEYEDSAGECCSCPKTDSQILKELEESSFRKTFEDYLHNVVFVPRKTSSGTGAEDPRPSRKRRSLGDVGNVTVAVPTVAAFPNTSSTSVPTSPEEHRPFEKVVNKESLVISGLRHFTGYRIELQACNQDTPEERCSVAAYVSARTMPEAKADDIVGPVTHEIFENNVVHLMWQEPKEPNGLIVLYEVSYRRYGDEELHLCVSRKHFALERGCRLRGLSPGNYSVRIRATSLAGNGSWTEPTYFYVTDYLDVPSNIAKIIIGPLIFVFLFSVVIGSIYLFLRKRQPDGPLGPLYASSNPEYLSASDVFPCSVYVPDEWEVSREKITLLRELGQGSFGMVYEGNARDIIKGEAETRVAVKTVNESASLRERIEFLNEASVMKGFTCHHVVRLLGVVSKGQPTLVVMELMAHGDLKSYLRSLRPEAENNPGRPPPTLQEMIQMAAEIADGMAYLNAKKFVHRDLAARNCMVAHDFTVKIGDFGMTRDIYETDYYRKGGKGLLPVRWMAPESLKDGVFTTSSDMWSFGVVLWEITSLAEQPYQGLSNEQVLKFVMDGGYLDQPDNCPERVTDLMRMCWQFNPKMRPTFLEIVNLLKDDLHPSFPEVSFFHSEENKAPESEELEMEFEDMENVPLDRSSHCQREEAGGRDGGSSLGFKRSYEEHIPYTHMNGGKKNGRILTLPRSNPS
Experimental: as §1

MARK1 (h) = target: T4, MARK1 (h) (Homo sapiens, UniProt Q9P0L2); assay: Kinase panel (Cerep); format: biochemical; settings: read-out: % inhibition at 10 µM by MC3353, MARK1 (h), ATP 1 μM
T4 construct: purchased Eurofins Cerep
T4 sequence (Q9P0L2 whole entry): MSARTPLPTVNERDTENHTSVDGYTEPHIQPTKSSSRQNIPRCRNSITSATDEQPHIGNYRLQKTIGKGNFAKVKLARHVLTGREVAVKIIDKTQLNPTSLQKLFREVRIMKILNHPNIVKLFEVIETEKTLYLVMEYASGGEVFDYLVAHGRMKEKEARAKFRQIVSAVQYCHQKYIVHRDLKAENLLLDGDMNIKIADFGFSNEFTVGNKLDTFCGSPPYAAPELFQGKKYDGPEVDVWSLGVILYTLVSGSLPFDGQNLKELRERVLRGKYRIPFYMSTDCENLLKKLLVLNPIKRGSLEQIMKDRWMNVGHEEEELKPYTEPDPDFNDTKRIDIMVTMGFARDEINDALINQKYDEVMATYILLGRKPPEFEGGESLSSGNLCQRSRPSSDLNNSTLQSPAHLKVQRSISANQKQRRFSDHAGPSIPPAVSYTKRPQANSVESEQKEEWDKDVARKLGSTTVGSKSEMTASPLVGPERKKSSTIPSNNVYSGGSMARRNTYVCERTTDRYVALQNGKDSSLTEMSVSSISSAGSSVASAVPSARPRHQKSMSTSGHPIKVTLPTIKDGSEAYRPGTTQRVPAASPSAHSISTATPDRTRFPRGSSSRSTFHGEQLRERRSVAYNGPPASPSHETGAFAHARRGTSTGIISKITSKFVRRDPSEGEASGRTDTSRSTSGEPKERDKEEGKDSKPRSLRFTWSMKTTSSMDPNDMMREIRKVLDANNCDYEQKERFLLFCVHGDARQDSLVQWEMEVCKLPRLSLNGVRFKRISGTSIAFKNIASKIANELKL
Experimental: as §1

PAK4 (h) = target: T5, PAK4 (h) (Homo sapiens, UniProt O96013); assay: Kinase panel (Cerep); format: biochemical; settings: read-out: % inhibition at 10 µM by MC3353, PAK4 (h), ATP 1 μM
T5 construct: purchased Eurofins Cerep
T5 sequence (O96013 whole entry): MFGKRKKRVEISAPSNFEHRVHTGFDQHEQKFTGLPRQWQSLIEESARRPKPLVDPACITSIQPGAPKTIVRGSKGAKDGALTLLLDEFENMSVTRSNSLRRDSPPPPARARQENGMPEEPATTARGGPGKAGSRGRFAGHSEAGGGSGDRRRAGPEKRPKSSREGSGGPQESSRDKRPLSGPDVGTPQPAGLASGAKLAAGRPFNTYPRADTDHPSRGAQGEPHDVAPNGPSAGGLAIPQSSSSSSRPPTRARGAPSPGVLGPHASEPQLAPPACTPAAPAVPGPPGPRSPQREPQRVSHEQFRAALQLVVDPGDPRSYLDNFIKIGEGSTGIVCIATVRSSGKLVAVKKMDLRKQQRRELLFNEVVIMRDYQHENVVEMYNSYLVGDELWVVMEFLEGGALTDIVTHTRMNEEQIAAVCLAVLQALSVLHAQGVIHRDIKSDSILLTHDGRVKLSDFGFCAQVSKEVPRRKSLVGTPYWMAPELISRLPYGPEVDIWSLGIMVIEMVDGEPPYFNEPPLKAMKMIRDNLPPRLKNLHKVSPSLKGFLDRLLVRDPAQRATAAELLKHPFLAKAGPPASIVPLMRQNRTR
Experimental: as §1

EGFR kinase (h) = target: T6, EGFR kinase (h) (Homo sapiens, UniProt P00533); assay: Kinase panel (Cerep); format: biochemical; settings: read-out: % inhibition at 10 µM by MC3353, EGFR kinase (h), ATP 10 μM
T6 construct: purchased Eurofins Cerep
T6 sequence (P00533 25-1210): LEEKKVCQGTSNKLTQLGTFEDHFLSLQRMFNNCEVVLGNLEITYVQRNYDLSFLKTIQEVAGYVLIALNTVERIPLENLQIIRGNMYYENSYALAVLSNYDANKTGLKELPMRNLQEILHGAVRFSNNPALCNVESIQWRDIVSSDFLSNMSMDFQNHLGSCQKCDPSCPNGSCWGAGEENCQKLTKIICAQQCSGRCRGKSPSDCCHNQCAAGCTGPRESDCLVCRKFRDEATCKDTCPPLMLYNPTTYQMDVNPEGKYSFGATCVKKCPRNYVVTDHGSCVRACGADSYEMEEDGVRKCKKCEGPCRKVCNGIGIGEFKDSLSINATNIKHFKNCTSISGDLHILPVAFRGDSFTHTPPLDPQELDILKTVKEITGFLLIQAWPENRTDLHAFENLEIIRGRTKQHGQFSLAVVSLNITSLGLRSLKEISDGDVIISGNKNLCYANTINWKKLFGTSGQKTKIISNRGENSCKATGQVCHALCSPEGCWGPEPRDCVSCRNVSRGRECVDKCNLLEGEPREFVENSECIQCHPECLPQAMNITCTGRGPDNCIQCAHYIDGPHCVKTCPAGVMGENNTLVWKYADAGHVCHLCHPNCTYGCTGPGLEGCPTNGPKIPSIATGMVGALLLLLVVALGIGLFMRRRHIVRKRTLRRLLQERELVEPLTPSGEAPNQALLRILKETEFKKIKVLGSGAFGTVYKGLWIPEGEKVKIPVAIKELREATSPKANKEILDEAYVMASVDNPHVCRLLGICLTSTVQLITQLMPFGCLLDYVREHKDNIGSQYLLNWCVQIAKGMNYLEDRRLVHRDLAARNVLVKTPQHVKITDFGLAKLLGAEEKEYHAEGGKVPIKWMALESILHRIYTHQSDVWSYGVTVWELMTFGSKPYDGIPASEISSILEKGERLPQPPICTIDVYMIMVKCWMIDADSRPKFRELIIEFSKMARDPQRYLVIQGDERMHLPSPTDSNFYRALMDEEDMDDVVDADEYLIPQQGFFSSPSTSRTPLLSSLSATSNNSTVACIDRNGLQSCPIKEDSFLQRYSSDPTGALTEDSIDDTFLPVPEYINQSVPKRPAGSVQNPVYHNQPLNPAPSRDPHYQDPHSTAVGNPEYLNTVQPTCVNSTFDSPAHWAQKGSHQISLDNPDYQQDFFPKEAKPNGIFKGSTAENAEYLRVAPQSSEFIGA
Experimental: as §1

human C-terminal DNMT3A = target: T7, human C-terminal DNMT3A (Homo sapiens, UniProt Q9Y6K1); assay: DNMT3A restriction-based fluorescence assay; format: biochemical
T7 construct: the C-terminal catalytic domain of human DNMT3A (hDNMT3A)
T7 sequence (Q9Y6K1 634-912 limits assumed): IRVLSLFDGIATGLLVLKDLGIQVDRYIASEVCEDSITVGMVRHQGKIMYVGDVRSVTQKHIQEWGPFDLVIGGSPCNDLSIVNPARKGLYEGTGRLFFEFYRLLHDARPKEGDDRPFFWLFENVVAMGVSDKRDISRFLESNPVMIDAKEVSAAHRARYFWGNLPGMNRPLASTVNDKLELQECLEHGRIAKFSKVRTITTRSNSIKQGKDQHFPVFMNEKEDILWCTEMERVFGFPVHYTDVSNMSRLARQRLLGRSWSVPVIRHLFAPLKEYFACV
Experimental: DNMT3A enzyme inhibition was adapted from the restriction-based fluorescence assay protocol described in Ceccaldi et al.. Briefly, it is performed in a 384-well microplate in a total volume of 50 μL. An oligonucleotide labeled at the 5′ end with biotin is hybridized to his complementary strand labeled at the 3′ end with 6-carboxyfluorescein. The DNA duplex thus formed contains only one single CpG site overlapping with a restriction site of a methylation sensitive restriction enzyme. The duplex is transferred in the wells coated with avidin. Thus, the duplex is fixed to the plate. The methylation reaction is performed by adding human C-terminal DNMT3A at the final concentration of 4 ng/μL in a total volume of 50 μL in the presence of the chemical compound to be tested at the desired concentration and the cofactor SAM at the final concentration of 20 μM. After incubation (1 h at 37 °C), the plate is washed and the methylation sensitive restriction enzyme HpyCH4IV is added. After 1-h incubation at 37 °C, the plate is washed and the fluorescence measured with a PerkinElmer Envision Multilabel Plate Reader (PerkinElmer, Villebon-sur-Yvette, France). The data are expressed as a percentage of inhibition vs. log concentration (M). Data are normalized referring to the “restriction control” (wells coated with labeled duplex not treated nor exposed to DNMT3A, but only cleaved by HpyCH4IV) as the maximum of inhibition (100%) and to the “DMSO control” (wells coated with labeled duplex but treated just with 0.1% DMSO exposed to DNMT3A and then to HpyCH4IV) as the minimum of inhibition (0%; total methylation).

[1] = tested on: PBMCs (non-proliferating, healthy donors); assay: Cell viability, trypan blue exclusion; format: cell-based; settings: Homo sapiens, PBMC, 48 h of treatment, read-out: IC50 ± SD, cell viability, PBMCs
Experimental: (§2) Peripheral blood mononuclear cells (PBMCs) from healthy donors were isolated as previously described. Freshly isolated PBMCs were either cultured and treated at 1.10^6 cells/mL (non-proliferating PBMCs) or stimulated with phytohaemoagglutinin (PHA) and interleukin (IL)-2 (called PHA_PBMCs) to induce blastogenesis in T lymphocytes before treatments as previously described. Briefly, freshly isolated PBMCs were seeded at a concentration of 2.10^6 cells/mL in RMPI 1640 supplemented with 1% antibiotic-antimycotic (Lonza, Verviers, Belgium) and 10% human AB serum (Corning, Fisher scientific, Merelbeke, Belgium). After overnight incubation, floating lymphoid cells were collected and seeded at 1.10^6 cells/mL in RMPI 1640 supplemented with 1% antibiotic-antimycotic, 5% FBS, 10% human AB serum, 1 μg/mL PHA (Gentaur, Kampenhout, Belgium), 50 U/mL IL-2 (Roche, Prophac, Luxembourg City, Luxembourg), 1% non-essential amino acids (Invitrogen, Luxembourg), 1% HEPES (Invitrogen, Luxembourg), 1% sodium pyruvate (Invitrogen, Luxembourg), and 0.1% β-mercaptoethanol (Invitrogen, Luxembourg). After 72 h, the cells were seeded at 1.10^6 cells/mL in the same mitogenic growth medium described just above and treated with test compounds.
(§3) Proliferation and viability of U-937, KG-1, RAJI, PC-3, MDA-MB-231, RPMI1788, PBMCs, and PHA_PBMCs were assessed by trypan blue exclusion assays at the indicated time points. Nuclear morphology changes associated with apoptosis and necrosis were evaluated by fluorescence microscopy after Hoechst and propidium iodide (PI) staining as previously described.
(§4) IC50 values of compounds against cellular viability were determined by using nonlinear regression fitting curves with GraphPad Prism 8 or CalcuSyn software The t test used for statistical analyses was performed with GraphPad Prism 8. All the tests were one-tailed, and a p value < 0.05 was considered statistically significant.

[2] = tested on: PHA_PBMCs (phytohemagglutinin-stimulated PBMCs); assay: Cell viability, trypan blue exclusion; format: cell-based; settings: Homo sapiens, PBMC; 48 h of treatment; proliferating, PHA-stimulated; read-out: IC50 ± SD, cell viability, PHA_PBMCs
Experimental: as §2, §3, §4

T1 sequence (O14757 whole entry): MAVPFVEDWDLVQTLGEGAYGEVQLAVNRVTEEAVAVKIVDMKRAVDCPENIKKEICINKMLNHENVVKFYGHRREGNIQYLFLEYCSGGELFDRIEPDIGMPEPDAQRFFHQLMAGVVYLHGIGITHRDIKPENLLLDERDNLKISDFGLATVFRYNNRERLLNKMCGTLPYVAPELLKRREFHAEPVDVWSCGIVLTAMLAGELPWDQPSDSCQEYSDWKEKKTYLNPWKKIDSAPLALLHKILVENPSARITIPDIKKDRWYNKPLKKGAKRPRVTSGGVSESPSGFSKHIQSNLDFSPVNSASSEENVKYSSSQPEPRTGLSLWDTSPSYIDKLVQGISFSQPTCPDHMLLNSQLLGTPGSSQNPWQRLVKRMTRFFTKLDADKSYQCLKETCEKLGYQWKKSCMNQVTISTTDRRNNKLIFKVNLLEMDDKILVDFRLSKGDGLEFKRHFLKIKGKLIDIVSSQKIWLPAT

## O=C(Nc1ccc(NC(=O)c2ccc(Nc3ccnc4ccccc34)cc2)cc1)OCc1ccccc1 [MC3353, Benzyl (4-(4-(quinolin-4-ylamino)benzamido)phenyl)carbamate]
CHK1 (h)
  inhibition at 10 µM: 7%
KDR kinase (h) (VEGFR2)
  inhibition at 10 µM: -111%
IRK (h) (InsR)
  inhibition at 10 µM: 38%
MARK1 (h)
  inhibition at 10 µM: -116%
PAK4 (h)
  inhibition at 10 µM: -4%
EGFR kinase (h)
  inhibition at 10 µM: 5%
Human C-terminal DNMT3A; fluorescent assay, C-terminal catalytic domain, read-out: EC50 ± SD, hDNMT3A
  EC50: 17 ± 3 µM
Human C-terminal DNMT3A; ratio of EC50 values
  fold higher potency than RG-108 against hDNMT3A: > 29 fold
  fold lower potency than SGI-1027 against hDNMT3A: 20 fold
[1]
  IC50: 8.9 ± 4.2 µM
[2]
  IC50: 4.6 ± 0.5 µM
